Legend:
RORα = target: T1, RORα (Homo sapiens, UniProt P35398); test: Gal4-RORα LBD / UAS luciferase cotransfection assay; format: cell-based; details: 10 μM
T1 construct: expressed in transfected cells; host or cells: HEK293T
T1 sequence (P35398 272-510 limits assumed): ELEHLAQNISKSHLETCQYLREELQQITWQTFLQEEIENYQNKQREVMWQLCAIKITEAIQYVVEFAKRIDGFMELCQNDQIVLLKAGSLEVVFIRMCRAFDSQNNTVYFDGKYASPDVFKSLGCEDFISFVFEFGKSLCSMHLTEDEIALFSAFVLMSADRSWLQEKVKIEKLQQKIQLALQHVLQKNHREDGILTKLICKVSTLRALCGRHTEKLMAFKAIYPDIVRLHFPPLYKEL
Description: (§1) The cells were treated with either DMSO or various compounds as indicated four hours after replating. Following additional 20 hour incubation, luciferase levels were assayed by one-step addition of 20 μL BriteLite (Perkin Elmer) and read using an Envision multilabel plate reader (Perkin Elmer).
(§2) Cotransfection assays were performed as previously described in HEK293 cells (Gal4 cotransfection assay or IL-17 luciferase reporter)[8]. HEK293 and the mouse lymphoma EL4 (ATCC) cells were maintained in DMEM supplemented with 10% FBS plus antibiotics (penicillin and streptomycin; Invitrogen).

RORγ = target: T2, RORγ (Homo sapiens, UniProt P51449); test: Gal4-RORγ LBD / UAS luciferase cotransfection assay; format: cell-based; details: 10 μM
T2 construct: expressed in transfected cells; host or cells: HEK293T
T2 sequence (P51449 269-508 limits assumed): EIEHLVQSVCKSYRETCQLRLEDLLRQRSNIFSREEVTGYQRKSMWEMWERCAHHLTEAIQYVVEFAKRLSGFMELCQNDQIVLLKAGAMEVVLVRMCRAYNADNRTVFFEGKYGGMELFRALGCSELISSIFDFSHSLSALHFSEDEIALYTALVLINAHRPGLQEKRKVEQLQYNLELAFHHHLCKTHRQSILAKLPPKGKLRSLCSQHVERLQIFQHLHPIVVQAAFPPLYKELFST
Description: as §1, §2

VP16 = test: Gal4 DBD-VP16 / UAS luciferase control assay; format: cell-based; details: 10 μM
Description: as §1

LXR = target: T3, LXR (Homo sapiens, UniProt Q13133); test: Gal4-LXRα / UAS luciferase cotransfection assay; format: cell-based; details: 10 μM
T3 sequence (Q13133 209-447 limits assumed): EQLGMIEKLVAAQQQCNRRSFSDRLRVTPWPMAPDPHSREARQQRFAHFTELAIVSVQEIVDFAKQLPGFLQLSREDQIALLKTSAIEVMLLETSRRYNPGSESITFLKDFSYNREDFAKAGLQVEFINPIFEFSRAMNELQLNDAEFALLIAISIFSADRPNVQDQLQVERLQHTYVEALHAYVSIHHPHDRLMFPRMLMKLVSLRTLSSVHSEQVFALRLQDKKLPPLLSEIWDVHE
Description: as §1, §2

GST-RORγ = target: T4, GST-RORγ (Homo sapiens, UniProt P51449); test: RORγ scintillation proximity (SPA) radioligand binding assay, displacement of [3H]-T0901317; details: read-out: RORγ SPA % bound = % radiolabel bound; for remaining activity at 1 µM: 1 μM compound (Table 2D); for remaining activity at 10 µM: 10 μM compound
T4 construct: 1 μg of GST-RORγ-LBD, 5 nM of [3H]T1317 as radioligand
T4 sequence (P51449 269-508 limits assumed): T2 sequence (P51449 269-508 limits assumed)

| SMILES | RORα repression, fold change over DMSO (RORα) | RORγ repression, fold change over DMSO (RORγ) | VP16 repression, fold change over DMSO (VP16) | LXR activation, fold change over DMSO (LXR) | remaining activity at 1 µM (GST-RORγ) | remaining activity at 10 µM (GST-RORγ) |
| --- | --- | --- | --- | --- | --- | --- |
| OC(c1ccc(-c2ccc(CN3CCN(Cc4cc5cc(F)ccc5[nH]4)CC3)cc2)cc1)(C(F)(F)F)C(F)(F)F [Compound 20, 1,1,1,3,3,3-Hexafluoro-2-(4′-((4-((5-fluoro-1H-indol-2-yl)methyl)piperazin-1-yl)methyl)-[1,1′-biphenyl]-4-yl)propan-2-ol] | 0.1 fold change over DMSO | 0.05 fold change over DMSO | 0.1 fold change over DMSO | 2.5 fold change over DMSO | – | – |
| OC(c1ccc(-c2ccc(CN3CCN(Cc4ccnc(Br)c4)CC3)cc2)cc1)(C(F)(F)F)C(F)(F)F [Compound 40, 2-(4′-((4-((2-Bromopyridin-4-yl)methyl)piperazin-1-yl)methyl)-[1,1′-biphenyl]-4-yl)-1,1,1,3,3,3-hexafluoropropan-2-ol] | 0.1 fold change over DMSO | 0.05 fold change over DMSO | 0.05 fold change over DMSO | 1 fold change over DMSO | – | – |
| OC(c1ccc(-c2ccc(CN3CCN(Cc4cccs4)CC3)cc2)cc1)(C(F)(F)F)C(F)(F)F [Compound 19, 1,1,1,3,3,3-Hexafluoro-2-(4′-((4-(thiophen-2-ylmethyl)piperazin-1-yl)methyl)-[1,1′-biphenyl]-4-yl)propan-2-ol] | 0.75 fold change over DMSO | 0.5 fold change over DMSO | 0.4 fold change over DMSO | 1.5 fold change over DMSO | – | – |
| O=S(=O)(Cc1ccccc1)N1CCN(Cc2ccc(-c3ccc(C(O)(C(F)(F)F)C(F)(F)F)cc3)cc2)CC1 [Compound 30, 2-(4′-((4-(Benzylsulfonyl)piperazin-1-yl)methyl)-[1,1′-biphenyl]-4-yl)-1,1,1,3,3,3-hexafluoropropan-2-ol] | 1 fold change over DMSO | 0.75 fold change over DMSO | 0.75 fold change over DMSO | 2 fold change over DMSO | – | – |
| OC(c1ccc(-c2ccc(CN3CCN(CCc4ccccc4)CC3)cc2)cc1)(C(F)(F)F)C(F)(F)F [Compound 11, 1,1,1,3,3,3-Hexafluoro-2-(4′-((4-phenethylpiperazin-1-yl)methyl)-[1,1′-biphenyl]-4-yl)propan-2-ol] | 0.5 fold change over DMSO | 0.5 fold change over DMSO | 0.35 fold change over DMSO | 1 fold change over DMSO | – | – |
| OC(c1ccc(-c2ccc(CN3CCN(Cc4ccncc4)CC3)cc2F)cc1)(C(F)(F)F)C(F)(F)F [Compound 95, 1,1,1,3,3,3-Hexafluoro-2-(2′-fluoro-4′-((4-(pyridin-4-ylmethyl)piperazin-1-yl)methyl)-[1,1′-biphenyl]-4-yl)propan-2-ol] | 0.5 fold change over DMSO | 0.05 fold change over DMSO | 0.7 fold change over DMSO | 5 fold change over DMSO | – | – |
| OC(c1ccc(-c2ccc(CN3CCN(CC4COc5ccccc5O4)CC3)cc2)cc1)(C(F)(F)F)C(F)(F)F (stereo not shown) [Compound 21, 2-(4′-((4-((2,3-Dihydrobenzo[b][1,4]dioxin-2-yl)methyl)piperazin-1-yl)methyl)-[1,1′-biphenyl]-4-yl)-1,1,1,3,3,3-hexafluoropropan-2-ol] | 0.45 fold change over DMSO | 0.35 fold change over DMSO | 0.35 fold change over DMSO | 0.7 fold change over DMSO | – | – |
| O=C(c1ccccc1)N1CCN(Cc2ccc(-c3ccc(C(O)(C(F)(F)F)C(F)(F)F)cc3)cc2)CC1 [Compound 26, (4-((4′-(1,1,1,3,3,3-Hexafluoro-2-hydroxypropan-2-yl)-[1,1′-biphenyl]-4-yl)methyl)piperazin-1-yl)(phenyl)methanone] | 0.9 fold change over DMSO | 0.8 fold change over DMSO | 0.7 fold change over DMSO | 2 fold change over DMSO | – | – |
| O=C(NCc1ccccc1)N1CCN(Cc2ccc(-c3ccc(C(O)(C(F)(F)F)C(F)(F)F)cc3)cc2)CC1 [Compound 24, N-Benzyl-4-((4′-(1,1,1,3,3,3-hexafluoro-2-hydroxypropan-2-yl)-[1,1′-biphenyl]-4-yl)methyl)piperazine-1-carboxamide] | 0.5 fold change over DMSO | 0.25 fold change over DMSO | 0.25 fold change over DMSO | 1.3 fold change over DMSO | – | – |
| OC(c1ccc(-c2ccc(CN3CCN(c4ccncc4)CC3)cc2)cc1)(C(F)(F)F)C(F)(F)F [Compound 44, 1,1,1,3,3,3-Hexafluoro-2-(4′-((4-(pyridin-4-yl)piperazin-1-yl)methyl)-[1,1′-biphenyl]-4-yl)propan-2-ol] | 0.5 fold change over DMSO | 0.4 fold change over DMSO | 0.3 fold change over DMSO | 1 fold change over DMSO | – | – |
| OC(c1ccc(-c2ccc(CN3CCN(CCc4ccncc4)CC3)cc2)cc1)(C(F)(F)F)C(F)(F)F [Compound 41, 1,1,1,3,3,3-Hexafluoro-2-(4′-((4-(2-(pyridin-4-yl)ethyl)piperazin-1-yl)methyl)-[1,1′-biphenyl]-4-yl)propan-2-ol] | 0.5 fold change over DMSO | 0.3 fold change over DMSO | 0.3 fold change over DMSO | 1 fold change over DMSO | – | – |
| OC(c1ccc(-c2ccc(CN3CCN(Cc4nc5ccccc5s4)CC3)cc2)cc1)(C(F)(F)F)C(F)(F)F [Compound 42, 2-(4′-((4-(Benzo[d]thiazol-2-ylmethyl)piperazin-1-yl)methyl)-[1,1′-biphenyl]-4-yl)-1,1,1,3,3,3-hexafluoropropan-2-ol] | 0.4 fold change over DMSO | 0.2 fold change over DMSO | 0.1 fold change over DMSO | 1 fold change over DMSO | – | – |
| CCCCC(=O)N1CCN(Cc2ccc(-c3ccc(C(O)(C(F)(F)F)C(F)(F)F)cc3)cc2)CC1 [Example 158, 1-(4-((4′-(1,1,1,3,3,3-hexafluoro-2-hydroxypropan-2-yl)-[1,1′-biphenyl]-4-yl)methyl)piperazin-1-yl)pentan-1-one] | – | – | – | – | 10% | – |
| O=C(Cc1c[nH]cn1)N1CCN(Cc2ccc(-c3ccc(C(O)(C(F)(F)F)C(F)(F)F)cc3)cc2)CC1 [Example 159, 1-(4-((4′-(1,1,1,3,3,3-hexafluoro-2-hydroxypropan-2-yl)-[1,1′-biphenyl]-4-yl)methyl)piperazin-1-yl)-2-(1H-imidazol-4-yl)ethanone] | – | – | – | – | 80% | – |
| OC(c1ccc(-c2ccc(CN3CCN(Cc4ccncc4)CC3)cc2)cc1F)(C(F)(F)F)C(F)(F)F [Compound 105, 1,1,1,3,3,3-Hexafluoro-2-(3-fluoro-4′-((4-(pyridin-4-ylmethyl)piperazin-1-yl)methyl)-[1,1′-biphenyl]-4-yl)propan-2-ol] | – | – | – | – | – | 80% |
| N#Cc1cc(-c2ccc(C(O)(C(F)(F)F)C(F)(F)F)cc2)ccc1CN1CCN(Cc2ccncc2)CC1 [Example 161, 4′-(1,1,1,3,3,3-hexafluoro-2-hydroxypropan-2-yl)-4-((4-(pyridin-4-ylmethyl)piperazin-1-yl)methyl)-[1,1′-biphenyl]-3-carbonitrile] | – | – | – | – | 95% | – |
| CCC(c1ccc(-c2ccc(C(O)(C(F)(F)F)C(F)(F)F)cc2)cc1)N1CCN(Cc2ccncc2)CC1 (stereo not shown) [Example 141, 1,1,1,3,3,3-hexafluoro-2-(4′-(1-(4-(pyridin-4-ylmethyl)piperazin-1-yl)propyl)-[1,1′-biphenyl]-4-yl)propan-2-ol] | – | – | – | – | 74% | – |
| CC1CN(Cc2ccc(-c3ccc(C(O)(C(F)(F)F)C(F)(F)F)cc3)cc2)CCN1Cc1ccncc1 (stereo not shown) [Compound 117] | – | – | – | – | – | 20% |
| OC(c1ccc(-c2cccc(CC3CCCN(Cc4ccncc4)C3)c2)cc1)(C(F)(F)F)C(F)(F)F (stereo not shown) [Example 163, 1,1,1,3,3,3-hexafluoro-2-(3′-((1-(pyridin-4-ylmethyl)piperidin-3-yl)methyl)-[1,1′-biphenyl]-4-yl)propan-2-ol] | – | – | – | – | 10% | – |
